In patent US11959096B2, “Methods for selective inhibition of pluripotent stem cells” (THE MEDICAL COLLEGE OF WISCONSIN, INC., priority 2014, dated 2024):

How the values were obtained:
sub-confluent hiPSC = test: Cleaved caspase-3/7 fluorescence based assay; assay type: cell-based, human; conditions: after initiation of treatment; 2.5 μM STF-31, 30 μM WZB117
hiPSC (DF6-9-9T) = test: Neutral red cell viability assay in hiPSC; assay type: cell-based, human; conditions: for LD50: 24 hour pulse treatment, viability 72 hours after treatment initiation
Protocol: (§1) Neutral red assays for cell viability were performed as previously described. In vitro cell death was determined using SYTOX® Green nucleic acid stain (Life Technologies). Briefly, cells were incubated in 5 μM SYTOX® Green for 30 minutes at 37° C. in a humidified cell incubator with 5% CO2. […] Imaging of cell viability was performed using Live/Dead® Viability/Cytotoxicity Kit, for mammalian cells (Life Technologies). Cells were stained for 20 minutes at room temperature with 4 μM Calcein AM to detect viable cells and 2 μM Ethidium Homodimer 1 to detect cells with compromised membranes. […] Imaging was performed with a Nikon Ti-U inverted microscope.

[1] = Neutral red cell viability assay in hiPSC; assay type: cell-based, human; conditions: human, hiPSC (DF6-9-9T) cells; 72 hours after start of treatment; both confluent and sub-confluent cells; 2.5 μM; read-out: viable cells remaining
Protocol: as §1

human fibroblasts = conditions: treatment time extended to 72 hours; previous report [19]; cited from earlier work
confluent hiPSC = test: Colony formation assay (alkaline phosphatase staining); assay type: cell-based, human; conditions: for colony formation: 24 hours treatment, no passaging, six days
Protocol: The first iteration was adapted from previously described method, after 24 hours of treatment, hiPSC were detached with Accutase (StemCell Technologies), re-suspended in E8, passed though 12×75 mm tube with cell strainer cap (Falcon), and plated at 5e4 live cells per 2 cm^2. Media were changed every 48 hours and cells were cultured for six days, at which time staining for alkaline phosphatase was performed with leukocyte alkaline phosphatase kit (Sigma-Aldrich) as described and plates were visually inspected for phosphatase-positive colonies. This strategy represents the most common implementation of the colony formation assay. However, concerns regarding the cell death normally encountered during passaging prompted another approach for stricter assessment. In the second iteration, cells were treated for 24 hours, washed twice with 0.5 mL D-PBS, and media refreshed with E8. Thereafter, media were replaced daily for six days at which point staining for alkaline phosphatase activity was performed. […] Elimination of hiPSC from co-cultures with differentiated cells was performed with human fibroblasts and day 10 cardiomyocytes derived from hiPSC. hiPSC (DF6-9-9T) were plated at concentrations ranging from 100-10,000 live cells per well with human fibroblasts (1.75e5 cells) or day 10 differentiated cardiomyocytes (3.75e5 cells) in E8 and Y-27632 per 9.6 cm^2. […] Six days after plating, staining for alkaline phosphatase activity was performed. […] Imaging of wells was performed with a Sony Cyber-shot DSC-TX30 and individual colonies with a Nikon stereoscope.

[2] = system: PAX6 positive neural progenitor cells; assay type: cell-based
Excerpt: Data expressed as mean+S.D. (n=4); p<0.05, **p<0.01, ***p<0.001. […] Data expressed as mean+S.D. (n=4), *p<0.05, **p<0.01, ***p<0.001.

[3] = system: DF6-9-9T hiPSC-derived cardiomyocytes; test: Neutral red viability assay in hiPSC-derived cardiomyocytes; assay type: cell-based; conditions: 24 hour pulse treatment
Protocol: In Vitro Toxicity Assays: Treatment with small molecules or glucose deprivation was initiated in hESC or hiPSC at 24 and 96 h post-plating and in vitro toxicity assays were performed at specified treatment endpoints 24-96 hours after treatment initiation. […] Neutral red assays for cell viability were performed as previously described. In vitro cell death was determined using SYTOX® Green nucleic acid stain (Life Technologies). Briefly, cells were incubated in 5 μM SYTOX® Green for 30 minutes at 37° C. in a humidified cell incubator with 5% CO2. Percent cell viability was determined by normalizing to replicate cells incubated with 120 μM digitonin (Sigma-Aldrich) and 5 μM SYTOX® Green. Imaging of cell viability was performed using Live/Dead® Viability/Cytotoxicity Kit, for mammalian cells (Life Technologies). Cells were stained for 20 minutes at room temperature with 4 μM Calcein AM to detect viable cells and 2 μM Ethidium Homodimer 1 to detect cells with compromised membranes. Representative images of alterations in cell morphology were acquired on confluent hPSC 24-72 hours after treatment initiation. Imaging was performed with a Nikon Ti-U inverted microscope.

hiPSC = test: Extracellular flux analysis (ECAR, OCR); assay type: cell-based, human
Protocol: Extracellular Flux Analysis: hiPSC were plated at 6e4 cells per well on specialized microplate (Seahorse Bioscience) as previously described with several exceptions. Extracellular flux analysis was performed on hiPSC 48 hours post-plating using Seahorse Bioscience XF24 Analyzer. […] The microplate was equilibrated in non-CO2 incubator for 1.5 h, and analyzed for 16 h in Seahorse Bioscience XF24 Analyzer. Assay medium consists of basal E8 reagents with the following exceptions: basal DMEM F-12 without phenol red (Gibco), no sodium bicarbonate, and 2.5 mM GlutaMAX™ (Gibco) and 15 mM Hepes (Gibco). Assay medium was adjusted to pH 7.4 at 37° C. prior to use. Extracellular acidification rate (ECAR) and basal oxygen consumption rate (OCR) were collected approximately every 60 minutes. Treatments were normalized to baseline media control value and are represented as average of thee biological replicates.

[4] = system: day 10 cardiomyocytes derived from hiPSC (DF6-9-9T); test: Characterization of cardiomyocytes after STF-31 (contractility, flow cytometry, immunofluorescence, qPCR); assay type: cell-based, human
Protocol: Quantitative-real time PCR for TNNI3, Troponin T2 (TNNT2), and Homeobox protein Nkx-2.5 (NKX2-5) was performed as previously described using Taqman® Assays […] Cells were then fixed with 4% paraformaldehyde, permeabilized with 0.2% Triton-X, incubated with primary antibody for Troponin T (TNNT2) (Abcam: ab8295) overnight at 4° C. Cells were then incubated in secondary antibody goat anti-mouse IgG1-Alexa 568 (Life Tech: A-21124) and nuclei were detected with Hoechst 33342 (Life Tech: H21492). Cells were imaged with a Nikon Ti-U inverted microscope and Nikon Eclipse 90i confocal microscope.

[5] = 5 μM 24 hour pulse, 72 hours after treatment initiation

## CC(C)(C)c1ccc(S(=O)(=O)NCc2ccc(C(=O)Nc3cccnc3)cc2)cc1 [STF-31, 4-[[[[4-(1,1-Dimethylethyl)phenyl]sulfonyl]amino]methyl]-N-3-pyridinyl-benzamide]
sub-confluent hiPSC
  time of induction of caspase-3/7 activity: 24 h
hiPSC (DF6-9-9T); confluent hiPSC
  LD50: 1.78 µM
hiPSC (DF6-9-9T); sub-confluent hiPSC
  LD50: 1.35 µM
hiPSC (DF6-9-9T); concentrations up to 100 μM, neutral red
  effect of increasing concentration on time of significant toxicity: did not accelerate the time
hiPSC (DF6-9-9T); confluent hiPSC, 48 hours after continuous treatment, neutral red
  median lethal dose (LD50): 182 nM
hiPSC (DF6-9-9T); data not shown
  minimal treatment time to achieve complete toxicity of hPSC: 24 h
[1]
  viability at 72 h, 2.5 μM: < 2%
Human fibroblasts
  cell viability: did not result in a decrease in cell viability
Confluent hiPSC; 24 hour pulse, cells passaged, cultured 6 days
  formation of alkaline phosphatase-positive colonies: prevented the formation of alkaline phosphatase-positive colonies
Confluent hiPSC; 2.5 μM STF-31
  colony formation: a limited number of colonies formed
Confluent hiPSC; 5 μM STF-31
  colony formation: no colonies were observed
[2]; 2.5 μM for 72 hours, day 10 and day 12 progenitors
  viability (MTT) and immunofluorescence compared with controls: indistinguishable from controls
[2]; short term treatment (24 hours), 2.5 μM
  toxicity: does not result in significant toxicity
[3]
  LD50: 40 µM
  LD50 cardiomyocytes relative to hiPSC: 22 fold
hiPSC; 2.5 μM STF-31
  delay of decrease in ECAR compared to inhibitors of glucose oxidation: up to 15 hours
hiPSC; 2.5 μM STF-31, 30 μM WZB117
  time before reductions in OCR: 15 h
[4]; 5 μM 24 hour pulse, 24-72 hours after initiation
  expression of cardiac genes (q-PCR): not significantly altered
[4]; [5]
  abundance of cardiac markers TNNI3 and IRX4 (flow cytometry): did not affect abundance
  structural organization of TNNT2: maintained comparable structural organization
[4]; 5 μM for 24 hours, day 10 cardiomyocytes
  cardiomyocyte spontaneous contractility: did not affect cardiomyocyte spontaneous contractility
[4]; treated on day 5 and day 10 of differentiation
  contractions, protein and mRNA levels of cardiomyocyte markers, structural features compared with controls: indistinguishable from controls
